Source: PubChem BioAssay (NCI)
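Cells were grown in 96-well plates and exposed to each compound for 48 hours at five concentrations; endpoints were interpolated linearly between bracketing concentrations, or set to the highest concentration if not reached. GI50 is the concentration that inhibits growth by half. TGI marks complete inhibition of growth.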

Legend:
Experiment in all cases: DTP human tumour cell line panel, 48 h
HL-60(TB) leukemia = test system: HL-60(TB) leukemia
SNB-75 CNS = test system: SNB-75 CNS
ACHN renal = test system: ACHN renal
RPMI-8226 leukemia = test system: RPMI-8226 leukemia
SW-620 colon = test system: SW-620 colon
MDA-MB-231 breast = test system: MDA-MB-231 breast
COLO 205 colon = test system: COLO 205 colon
HCT-15 colon = test system: HCT-15 colon
NCI-H23 lung = test system: NCI-H23 lung
HS 578T breast = test system: HS 578T breast
MOLT-4 leukemia = test system: MOLT-4 leukemia
K-562 leukemia = test system: K-562 leukemia
A549 NSCLC = test system: A549 NSCLC
786-0 renal = test system: 786-0 renal
SN12C renal = test system: SN12C renal
SK-MEL-28 melanoma = test system: SK-MEL-28 melanoma
OVCAR-8 ovarian = test system: OVCAR-8 ovarian
NCI/ADR-RES ovarian = test system: NCI/ADR-RES ovarian
DU-145 prostate = test system: DU-145 prostate
UACC-257 melanoma = test system: UACC-257 melanoma
SF-268 CNS = test system: SF-268 CNS
TK-10 renal = test system: TK-10 renal
SNB-19 CNS = test system: SNB-19 CNS
SK-OV-3 ovarian = test system: SK-OV-3 ovarian
RXF 393 renal = test system: RXF 393 renal
U251 CNS = test system: U251 CNS
HCC-2998 colon = test system: HCC-2998 colon
SR leukemia = test system: SR leukemia
OVCAR-5 ovarian = test system: OVCAR-5 ovarian
M14 melanoma = test system: M14 melanoma
A498 renal = test system: A498 renal
BT-549 breast = test system: BT-549 breast
HT29 colon = test system: HT29 colon
OVCAR-4 ovarian = test system: OVCAR-4 ovarian
KM12 colon = test system: KM12 colon
SF-295 CNS = test system: SF-295 CNS
IGROV1 ovarian = test system: IGROV1 ovarian
LOX IMVI melanoma = test system: LOX IMVI melanoma
MCF7 breast = test system: MCF7 breast
UACC-62 melanoma = test system: UACC-62 melanoma
NCI-H460 lung = test system: NCI-H460 lung
NCI-H226 lung = test system: NCI-H226 lung
OVCAR-3 ovarian = test system: OVCAR-3 ovarian
HCT-116 colon = test system: HCT-116 colon
T-47D breast = test system: T-47D breast
UO-31 renal = test system: UO-31 renal
SK-MEL-5 melanoma = test system: SK-MEL-5 melanoma
SF-539 CNS = test system: SF-539 CNS
CAKI-1 renal = test system: CAKI-1 renal
PC-3 prostate = test system: PC-3 prostate
NCI-H522 lung = test system: NCI-H522 lung
HOP-62 NSCLC = test system: HOP-62 NSCLC
HOP-92 NSCLC = test system: HOP-92 NSCLC
MDA-MB-435 = test system: MDA-MB-435
MALME-3M melanoma = test system: MALME-3M melanoma
SK-MEL-2 melanoma = test system: SK-MEL-2 melanoma

## COc1cc(-c2nn(-c3cccc(NC(=O)Nc4cccc(C(F)(F)F)c4)c3)cc2-c2ccncc2)ccc1Cl
HL-60(TB) leukemia
  GI50: 0.756 µM
  TGI: 10.1 µM
SNB-75 CNS
  GI50: 1.13 µM
  TGI: 4.1 µM
ACHN renal
  GI50: 0.371 µM
  TGI: 13.6 µM
RPMI-8226 leukemia
  GI50: 0.241 µM
  TGI: 1.83 µM
SW-620 colon
  GI50: 0.767 µM
  TGI: 9.43 µM
MDA-MB-231 breast
  GI50: 0.813 µM
  TGI: 2.23 µM
COLO 205 colon
  GI50: 0.588 µM
  TGI: 1.43 µM
HCT-15 colon
  GI50: 0.957 µM
  TGI: 10.8 µM
NCI-H23 lung
  GI50: 0.769 µM
  TGI: 3.02 µM
HS 578T breast
  GI50: 1.36 µM
  TGI: 16.6 µM
MOLT-4 leukemia
  GI50: 0.936 µM
  TGI: 3.48 µM
K-562 leukemia
  GI50: 0.386 µM
  TGI: 12.1 µM
A549 NSCLC
  GI50: 0.723 µM
  TGI: 14.5 µM
786-0 renal
  GI50: 1.12 µM
  TGI: 3.17 µM
SN12C renal
  GI50: 0.817 µM
  TGI: 10.5 µM
SK-MEL-28 melanoma
  GI50: 1.06 µM
  TGI: 3.91 µM
OVCAR-8 ovarian
  GI50: 0.739 µM
  TGI: 2.7 µM
NCI/ADR-RES ovarian
  GI50: 0.696 µM
  TGI: 3.58 µM
DU-145 prostate
  GI50: 1.36 µM
  TGI: 22.8 µM
UACC-257 melanoma
  GI50: 0.746 µM
  TGI: 2.09 µM
SF-268 CNS
  GI50: 1.28 µM
  TGI: 5.01 µM
TK-10 renal
  GI50: 1.06 µM
  TGI: 9.26 µM
SNB-19 CNS
  GI50: 0.999 µM
  TGI: 6.26 µM
SK-OV-3 ovarian
  GI50: 1.7 µM
  TGI: 15.4 µM
RXF 393 renal
  GI50: 0.798 µM
  TGI: 1.95 µM
U251 CNS
  GI50: 0.467 µM
  TGI: 1.23 µM
HCC-2998 colon
  GI50: 1.38 µM
  TGI: 4.71 µM
SR leukemia
  GI50: 0.858 µM
  TGI: 2.62 µM
OVCAR-5 ovarian
  GI50: 1.52 µM
  TGI: 8.41 µM
M14 melanoma
  GI50: 0.759 µM
  TGI: 2.16 µM
A498 renal
  GI50: 0.609 µM
  TGI: 3.03 µM
BT-549 breast
  GI50: 1.23 µM
  TGI: 4.03 µM
HT29 colon
  GI50: 0.775 µM
  TGI: 2.09 µM
OVCAR-4 ovarian
  GI50: 0.996 µM
  TGI: 13.8 µM
KM12 colon
  GI50: 0.422 µM
  TGI: 2.02 µM
SF-295 CNS
  GI50: 0.229 µM
  TGI: 0.926 µM
IGROV1 ovarian
  GI50: 0.92 µM
  TGI: 3.24 µM
LOX IMVI melanoma
  GI50: 0.789 µM
  TGI: 1.65 µM
MCF7 breast
  GI50: 0.609 µM
  TGI: 4.7 µM
UACC-62 melanoma
  GI50: 0.627 µM
  TGI: 1.48 µM
NCI-H460 lung
  GI50: 0.478 µM
  TGI: 2.28 µM
NCI-H226 lung
  GI50: 1.21 µM
  TGI: 14.8 µM
OVCAR-3 ovarian
  GI50: 0.343 µM
  TGI: 1.59 µM
HCT-116 colon
  GI50: 0.608 µM
  TGI: 6.09 µM
T-47D breast
  GI50: 0.638 µM
  TGI: 11.4 µM
UO-31 renal
  GI50: 0.747 µM
  TGI: 3.04 µM
SK-MEL-5 melanoma
  GI50: 0.622 µM
  TGI: 1.27 µM
SF-539 CNS
  GI50: 0.958 µM
  TGI: 2.56 µM
CAKI-1 renal
  GI50: 0.952 µM
  TGI: 3.1 µM
PC-3 prostate
  GI50: 0.244 µM
  TGI: 1.55 µM
NCI-H522 lung
  GI50: 0.451 µM
  TGI: 1.87 µM
HOP-62 NSCLC
  GI50: 0.923 µM
  TGI: 2.88 µM
HOP-92 NSCLC
  GI50: 0.251 µM
  TGI: 0.921 µM
MDA-MB-435
  GI50: 0.794 µM
  TGI: 1.98 µM
MALME-3M melanoma
  GI50: 0.845 µM
  TGI: 2.18 µM
SK-MEL-2 melanoma
  GI50: 0.935 µM
  TGI: 1.94 µM

## CC(=O)Oc1cc(C(C)C)c(OCCN(C)C)cc1C
HL-60(TB) leukemia
  GI50: > 100 µM
  TGI: > 100 µM
SNB-75 CNS
  GI50: 50.9 µM
  TGI: > 100 µM
ACHN renal
  GI50: > 100 µM
  TGI: > 100 µM
RPMI-8226 leukemia
  GI50: > 100 µM
  TGI: > 100 µM
SW-620 colon
  GI50: > 100 µM
  TGI: > 100 µM
MDA-MB-231 breast
  GI50: > 100 µM
  TGI: > 100 µM
COLO 205 colon
  GI50: > 100 µM
  TGI: > 100 µM
HCT-15 colon
  GI50: > 100 µM
  TGI: > 100 µM
NCI-H23 lung
  GI50: > 100 µM
  TGI: > 100 µM
HS 578T breast
  GI50: > 100 µM
  TGI: > 100 µM
K-562 leukemia
  GI50: > 100 µM
  TGI: > 100 µM
A549 NSCLC
  GI50: > 100 µM
  TGI: > 100 µM
786-0 renal
  GI50: > 100 µM
  TGI: > 100 µM
SN12C renal
  GI50: > 100 µM
  TGI: > 100 µM
SK-MEL-28 melanoma
  GI50: > 100 µM
  TGI: > 100 µM
NCI/ADR-RES ovarian
  GI50: > 100 µM
  TGI: > 100 µM
DU-145 prostate
  GI50: > 100 µM
  TGI: > 100 µM
UACC-257 melanoma
  GI50: > 100 µM
  TGI: > 100 µM
SF-268 CNS
  GI50: > 100 µM
  TGI: > 100 µM
TK-10 renal
  GI50: > 100 µM
  TGI: > 100 µM
SNB-19 CNS
  GI50: > 100 µM
  TGI: > 100 µM
SK-OV-3 ovarian
  GI50: > 100 µM
  TGI: > 100 µM
RXF 393 renal
  GI50: > 100 µM
  TGI: > 100 µM
U251 CNS
  GI50: > 100 µM
  TGI: > 100 µM
HCC-2998 colon
  GI50: > 100 µM
  TGI: > 100 µM
SR leukemia
  GI50: > 100 µM
  TGI: > 100 µM
OVCAR-5 ovarian
  GI50: > 100 µM
  TGI: > 100 µM
M14 melanoma
  GI50: > 100 µM
  TGI: > 100 µM
A498 renal
  GI50: > 100 µM
  TGI: > 100 µM
BT-549 breast
  GI50: > 100 µM
  TGI: > 100 µM
HT29 colon
  GI50: > 100 µM
  TGI: > 100 µM
OVCAR-4 ovarian
  GI50: > 100 µM
  TGI: > 100 µM
KM12 colon
  GI50: > 100 µM
  TGI: > 100 µM
SF-295 CNS
  GI50: > 100 µM
  TGI: > 100 µM
IGROV1 ovarian
  GI50: > 100 µM
  TGI: > 100 µM
MCF7 breast
  GI50: > 100 µM
  TGI: > 100 µM
UACC-62 melanoma
  GI50: > 100 µM
  TGI: > 100 µM
NCI-H460 lung
  GI50: > 100 µM
  TGI: > 100 µM
NCI-H226 lung
  GI50: > 100 µM
  TGI: > 100 µM
OVCAR-3 ovarian
  GI50: > 100 µM
  TGI: > 100 µM
HCT-116 colon
  GI50: > 100 µM
  TGI: > 100 µM
T-47D breast
  GI50: > 100 µM
  TGI: > 100 µM
UO-31 renal
  GI50: > 100 µM
  TGI: > 100 µM
SK-MEL-5 melanoma
  GI50: > 100 µM
  TGI: > 100 µM
SF-539 CNS
  GI50: > 100 µM
  TGI: > 100 µM
CAKI-1 renal
  GI50: > 100 µM
  TGI: > 100 µM
PC-3 prostate
  GI50: > 100 µM
  TGI: > 100 µM
NCI-H522 lung
  GI50: > 100 µM
  TGI: > 100 µM
HOP-62 NSCLC
  GI50: > 100 µM
  TGI: > 100 µM
HOP-92 NSCLC
  GI50: > 100 µM
  TGI: > 100 µM
MDA-MB-435
  GI50: > 100 µM
  TGI: > 100 µM
MALME-3M melanoma
  GI50: > 100 µM
  TGI: > 100 µM
SK-MEL-2 melanoma
  GI50: > 100 µM
  TGI: > 100 µM
